# Patent US20230142647A1, “METHOD OF TREATING CANCER OR A BLOOD DISORDER” (priority 2021, published 2023)
# Where two headings read alike, the source gives them in different places.
# Legend:
# [1] = test system: human NPM1/FLT3-mutated AML cells; assay: single agent survival experiment in PDX model with NPM1/FLT3 mutations (Example 2); assay type: in vivo, mice; conditions: 3x/wk from day 24; for survival benefit compared to vehicle (in words): Valtrate 10 mg/kg, CAPE 50 mg/kg, selinexor 7 mg/kg by oral gavage
# Method: FIG. 4A. Experiment plan diagram. […] THU inhibits cytidine deaminase(CDA) to prolong 5-AC half-life. Treatment was initiated at day 24 and then repeated three times a week. Mice were humanly euthanized after becoming moribund or losing 15% of their initial weight in accordance with institutional guidelines. (FIG. 4B) Survival presented as Kaplan-Meier survival analysis graph from inoculation time to distress. P values and log-rank test are calculated and plotted. […] Mean±SD.
# Immunodeficient NSG mice are xenotransplanted with human NPM1/FLT3-mutated AML cells.
# On day 24 mice were assigned for treatment groups (n=5 per group). The treatment groups are 1) Vehicle, 2) Valtrate 10 mg/kg by oral gavage, 3) CAPE 50 mg/kg by oral gavage, 4) selinexor 7 mg/kg by oral gavage, 5) 5-AC2 mg/kg subcutaneously, and 6) 5-AC(2 mg/kg) subcutaneously+THU (20 mg/kg) intraperitoneally. The addition of THU extends 5-AC half-life, by inhibiting the enzyme cytidine deaminase(CDA), which degrades 5-AC. Treatment started on day 24, 3×/wk. (FIG. 4A). […] Groups are compared with vehicle and with each other. To monitor progress periodic blood counts are analyzed along with distress signs.
# [2] = test system: AML with NPM1/FLT3 mutations cells; assay: survival study of combinations in high tumor load PDX model of NPM1/FLT3 mutations (Example 4); assay type: in vivo, mice; conditions: at distress point or day 200
# Excerpt: FIG. 9A Treatment groups illustration: Primary acute myelogenous leukemia (AML) patient cells with Nucleophosmin 1 and fins-like tyrosine kinase-3 mutations (NPM1/FLT3) were xenotranplanted into immunodeficient Nod-SCID-IL-2Rgamma-null mice (NSG, Jackson Laboratory) by injecting 1×10^6 cells IV (n=5 per group) at day 0 (D0). Engraftment D28≥45% bone engraftment was confirmed in 3 randomly selected mice. At D28 mice were divided in to five treatment groups (n=5 per group), 1) Vehicle, 2) 5-AC(2 mg/kg)/THU(20 mg/kg), 3) 5-AC(2 mg/kg)/THU(20 mg/kg)/selinexor (5 mg/kg), 4) 5-AC(2 mg/kg)/THU(20 mg/kg)/CAPE (50 mg/kg) and 5) 5-AC(2 mg/kg)/THU(20 mg/kg)/Valtrate(10 mg/kg). […]
# Peripheral blood analysis of WBCs, hemoglobin Hb, and platelets count. peripheral blood obtained by tail vein phlebotomy and serial blood counted on day 0, 45, 100, 140 and 200. And analyzed by HemaVet blood lab. […]
# An image analysis to evaluate tumor burden of the spleens, was by histologic identification of relatively large infiltrating AML cells, replacing normal splenic structure by H&E staining of spleen sections. Image analysis of cell counts were plotted and quantified. […]
# Furthermore, efficacy vs toxicity is best assessed by serial peripheral blood analysis of WBCs, hemoglobin Hb, and platelets. […] Blood samples were analyzed by HemaVet blood lab. […]
# HL-60 cell line = assay: AML HL-60 cell line cell counts and morphologic differentiation; assay type: cell-based; conditions: Valtrate 6 μM, CAPE 4 μM, 5-AC 2.5 μM, selinexor 20 nM, day 5
# Method: Cell counts obtained using automated counter, Mean±SD (3 experiments) cell morphology obtained from the same cell culture. P<0.01 significant, t test (2 sided). The small molecule agents were used in dosages: Valtrate (6 μM), CAPE (4 μM), 5-AC (2.5 μM), selinexor (20 nM) and in the combinations relative to vehicle. cell counts (day 0-5) and morphology (day 5). (FIG. 3A) Valtrate, 5-AC, and Valtrate+5-AC cell count and morphologic changes relative to vehicle and individual agents. (FIG. 3B) CAPE, 5-AC, and CAPE+5-AC cell counts day 0-5 and morphologic changes on day 5 relative to vehicle and individual agents. (FIG. 3C) Combinational groups of 5-AC+valtrate, 5-AC+CAPE, and 5-AC+selinexor morphologic development (day 5) are compared.
# The low dosages were purposed for use in combination with low dose 5-AC, Such as to position AML cells in a state of hypomethylated accessible chromatin with increased nuclear transcription factors. cell counts and morphologic alterations were observed. Dosages for this purpose were: Valtrate (6 μM), CAPE (4 μM), 5-AC (2.5 μM), and for comparing with Selinexor (20 nM) the same dosages were used for combinations.
# AML (NPM1-FLT3 and MLL) = assay type: in vivo
Compound,"femoral and tibial bone appearance (white = leukemia replacement, red/dark = functional hematopoiesis) [2]",survival benefit compared to vehicle (in words) [1],spindle shaped cells (terminal fate morphology) (HL-60 cell line),also measured
"Nc1ncn([C@@H]2O[C@H](CO)[C@@H](O)[C@H]2O)c(=O)n1 [5-AC, 5-Azacytidine]",White pale bones,–,–,"survival benefit ([1]; 5-AC 2 mg/kg subcutaneously, THU 20 mg/kg intraperitoneally): more than 25 days"
O=C(/C=C\n1cnc(-c2cc(C(F)(F)F)cc(C(F)(F)F)c2)n1)NNc1cnccn1 [selinexor],–,minimal,not observed,–
Valtrate,–,minimal,–,"synergy in combination with 5-AC (AML (NPM1-FLT3 and MLL); mouse, in vivo): effective synergetic action"
"O=C1NC(O)CCN1[C@@H]1O[C@H](CO)[C@@H](O)[C@H]1O (stereo partly shown) [THU, Tetrahydrouridine]",White pale bones,–,–,–
"O=C(/C=C/c1ccc(O)c(O)c1)OCCc1ccccc1 [CAPE, Caffeic Acid Phenethyl Ester]",–,minimal,not observed,"synergy in combination with 5-AC (AML (NPM1-FLT3 and MLL); oral Valtrate 10 mg/kg 3x/wk or CAPE 50 mg/kg 3x/wk, in combination with 5-AC): effective synergetic action"
